Reference: PMC9248904, “Genomic and Chemical Decryption of the Bacteroidetes Phylum for Its Potential to Biosynthesize Natural Products” (Microbiology Spectrum, 2022)
Converted amounts (≈) assume the structure as drawn. Read-outs that look alike come from different tables or passages of the source. *1 amine or outer side, *2 acyl side, *3 side chain or, on linkers, in order; H or OH if unused. Where a SMILES comes first, the peptide text is derived from it. Bridges are numbered along the chain shown (N, C = ends). [ ]: non-standard residue; d: D form. The star is where a group is joined. Phe(3R-OH) = O=C([C@@H](N[*:1])[C@H](O[*:3])c1ccccc1)[*:2]; Asp(3S-OH) = N[C@H](C(=O)O)[C@H](O)C(=O)O; Ile(3R-OH) = CC[C@@](C)(O)[C@H](N)C(=O)O; d(aIle) = CC[C@H](C)[C@@H](N)C(=O)O; d(aThr) = C[C@@H](O)[C@@H](N)C(=O)O; NMeV = CN[C@H](C(=O)O)C(C)C; X2 = CCCCCCCC(N)C(C)C(=O)*; Dap = NC[C@H](N)C(=O)O

Key:
[1] = test system: Aspergillus flavus ATCC 9170; experiment: microbe, parasite or virus in culture; format: cell-based
Description: (§1) The MIC was determined by broth microdilution method in 96-well plates with 100 µL assay volume per well following EUCAST instructions ([116], [117]) for E. coli ATCC 35218, E. coli ATCC 25922 ΔTolC, E. coli MG1655, Pseudomonas aeruginosa ATCC 27853, P. aeruginosa PAO750, Klebsiella pneumoniae ATCC 13883, Moraxella catarrhalis ATCC 25238, Acinetobacter baumannii ATCC 19606, Bacillus subtilis DSM 10, Staphylococcus aureus ATCC 25923, and Micrococcus luteus DSM 20030. Listeria monocytogenes DSM 20600 (1 day of incubation at 37°C) and Mycobacterium smegmatis ATCC 607 (2 days of incubation at 37°C) were grown in BHI broth supplemented with 1% (vol/vol) Tween 80. Candida albicans FH2173 was grown in MHIIB over 2 days of incubation at 37°C (pre-culture 2 days at 28°C). Approximate inoculation cell density for all strains was 500,000 CFU/mL, except 1,000,000 CFU/mL were used for M. smegmatis and C. albicans. For all fungal screenings 100,000 spores/mL were used and incubated at 37°C for Aspergillus flavus ATCC 9170 (MHIIB) and 25°C for Z. tritici MUCL45407 (4 g/L yeast extract, 4 g/L malt extract, 4 g/L sucrose) and Fusarium oxysporum ATCC 7601 (potato dextrose broth, Sigma). Growth inhibition was detected by optical density (600 nm) or for M. luteus, L. monocytogenes, C. albicans, M. smegmatis, and all fungi by quantification of free ATP using BacTiter-Glo after 24 to 48 h (72 h for Z. tritici). All MIC assays were performed at least in triplicate. FE(III)-citrate was added at molar ratios of 1:1 to samples in DMSO to test compounds in their iron bound conformation.

[2] = test system: Fusarium oxysporum ATCC 7601; experiment: microbe, parasite or virus in culture; format: cell-based
Description: as §1

[3] = test system: Candida albicans FH2173; experiment: microbe, parasite or virus in culture; format: cell-based; details: C. albicans FH2173, MHIIB, 2 days 37°C, BacTiter-Glo, Iron -, at least triplicate
Description: as §1

[4] = test system: Z. tritici MUCL45407; experiment: microbe, parasite or virus in culture; format: cell-based; details: Z. tritici MUCL45407; 25°C, 72 h, 100,000 spores/mL; BacTiter-Glo; Iron -; at least triplicate
Description: as §1

[5] = test system: Mycobacterium smegmatis ATCC 607; experiment: microbe, parasite or virus in culture; format: cell-based; details: M. smegmatis ATCC 607, BHI broth + 1% Tween 80, 2 days 37°C, BacTiter-Glo, Iron -, at least triplicate
Description: as §1

[6] = test system: Acinetobacter baumannii ATCC 19606; format: cell-based
Description: as §1

[7] = test system: Micrococcus luteus DSM 20030; format: cell-based
Description: as §1

[8] = test system: Pseudomonas aeruginosa ATCC 27853; format: cell-based
Description: as §1

[9] = test system: Staphylococcus aureus ATCC 25923; format: cell-based
Description: as §1

[10] = test system: Moraxella catarrhalis ATCC 25238; format: cell-based
Description: as §1

[11] = test system: Bacillus subtilis DSM 10; format: cell-based
Description: as §1

[12] = test system: E. coli ATCC 25922 ΔTolC; format: cell-based, Escherichia coli; details: broth microdilution, 96-well, EUCAST, OD600, Iron -, at least triplicate
Description: as §1

[13] = test system: E. coli ATCC 35218; format: cell-based, Escherichia coli
Description: as §1

[14] = test system: P. aeruginosa PAO750; format: cell-based, Pseudomonas aeruginosa; details: broth microdilution, 96-well, EUCAST, OD600, Iron -, at least triplicate
Description: as §1

[15] = test system: Klebsiella pneumoniae ATCC 13883; format: cell-based; details: K. pneumoniae ATCC 13883; broth microdilution, 96-well, EUCAST; OD600; Iron -; at least triplicate
Description: as §1

[16] = test system: Listeria monocytogenes DSM 20600; format: cell-based; details: L. monocytogenes DSM 20600; BHI broth + 1% Tween 80, 1 day 37°C; BacTiter-Glo; Iron -; at least triplicate
Description: as §1

[17] = test system: E. coli MG1655; format: cell-based, Escherichia coli; details: broth microdilution, 96-well, EUCAST, OD600, Iron -, at least triplicate
Description: as §1

[18] = A. flavus ATCC 9170, MHIIB, 37°C, 100,000 spores/mL, BacTiter-Glo, Iron -, at least triplicate
[19] = F. oxysporum ATCC 7601, potato dextrose broth, 25°C, 100,000 spores/mL, BacTiter-Glo, Iron -, at least triplicate
[20] = A. baumannii ATCC 19606, broth microdilution, 96-well, EUCAST, OD600, Iron -, at least triplicate
[21] = M. luteus DSM 20030, broth microdilution, 96-well, free ATP (BacTiter-Glo), Iron -, at least triplicate
[22] = P. aeruginosa ATCC 27853, broth microdilution, 96-well, EUCAST, OD600, Iron -, at least triplicate
[23] = S. aureus ATCC 25923, broth microdilution, 96-well, EUCAST, OD600, Iron -, at least triplicate
[24] = M. catarrhalis ATCC 25238, broth microdilution, 96-well, EUCAST, OD600, Iron -, at least triplicate
[25] = B. subtilis DSM 10, broth microdilution, 96-well, EUCAST, OD600, Iron -, at least triplicate
[26] = E. coli ATCC 35218, broth microdilution, 96-well, EUCAST, OD600, chitinopeptins without iron (Iron -), at least triplicate

## C[C@@H]1[C@H](O)[C@@H](C)/C=C/C=C/CC/C=C/C=C/C=C/C=C/C(O[C@H]2O[C@H](C)[C@@H](O)[C@H](N)[C@@H]2O)CC2O[C@](O)(CC(O)C(O)CCC(O)CC(O)CC(O)CC(=O)O[C@H]1C)CC(O)C2C(=O)O (some centres unmarked) [Nystatin, reference compound]
[1]; [18]
  MIC: 16 µg/mL (≈ 17.3 µM)
[2]; [19]
  MIC: 4 µg/mL (≈ 4.32 µM)
[3]
  MIC: 16 µg/mL (≈ 17.3 µM)
[4]
  MIC: 0.5 µg/mL (≈ 0.54 µM)

## Chitinopeptin C1+C2
[5]
  MIC: > 64 µg/mL
[1]; [18]
  MIC: 64 µg/mL
[2]; [19]
  MIC: > 64 µg/mL
[3]
  MIC: 16 µg/mL
[4]
  MIC: 16 µg/mL
[6]; [20]
  MIC: 16 µg/mL
[7]; [21]
  MIC: 32 µg/mL
[8]; [22]
  MIC: > 64 µg/mL
[9]; [23]
  MIC: > 64 µg/mL
[10]; [24]
  MIC: 2 µg/mL
[11]; [25]
  MIC: 4 µg/mL
[12]
  MIC: > 64 µg/mL
[13]; [26]
  MIC: > 64 µg/mL

## CCCCCCCC(N)C(C)C(=O)N(C)[C@H](C(=O)N[C@H]1C(=O)N[C@H](C)C(=O)N[C@@H]([C@H](O)C(=O)O)C(=O)N[C@@H]([C@H](O)c2ccccc2)C(=O)N[C@H]([C@@H](C)CC)C(=O)N[C@@H](CO)C(=O)N[C@H](CCCCN)C(=O)N[C@@H](CN)C(=O)N[C@H](CC(C)C)C(=O)N[C@@H]([C@H](O)C(=O)O)C(=O)N[C@@H](CC(C)C)C(=O)N[C@@H]([C@H](O)C(=O)O)C(=O)N[C@@H]([C@](C)(O)CC)C(=O)O[C@@H]1C)C(C)C (stereo partly drawn) [Chitinopeptin B] (X2-[NMeV][d(aThr)][dA][Asp(3S-OH)][Phe(3R-OH)][d(aIle)]S[dK][Dap][dL][Asp(3S-OH)]L[Asp(3S-OH)][Ile(3R-OH)]; ester 2-C)
[1]; ATCC 9170
  MIC: > 64 µg/mL
[2]; ATCC 7601
  MIC: > 64 µg/mL
[3]
  MIC: 8 µg/mL (≈ 4.46 µM)
[3]; listed as 2
  MIC: 4 to 8 µg/mL
[4]
  MIC: 16 µg/mL (≈ 8.91 µM)
[6]; ATCC 19606
  MIC: 64 µg/mL (≈ 35.7 µM)
[7]; DSM 20030
  MIC: 32 µg/mL (≈ 17.8 µM)
[8]; ATCC 27853
  MIC: > 64 µg/mL
[9]; ATCC 25923
  MIC: > 64 µg/mL
[10]; ATCC 25238
  MIC: 2 µg/mL (≈ 1.11 µM)
[11]; DSM 10
  MIC: 4 µg/mL (≈ 2.23 µM)
[12]
  MIC: > 64 µg/mL
[13]; ATCC 35218
  MIC: > 64 µg/mL

## NNC(=O)c1ccncc1 [Isoniazid, reference compound]
[5]; Mycolicibacterium smegmatis, ATCC607, 48 h, read-out: MIC
  MIC: 1 µg/mL

## Rifamicin [reference compound]
[14]
  MIC: 16 µg/mL
[5]
  MIC: 8 µg/mL
[6]; [20]
  MIC: 2 µg/mL
[7]; [21]
  MIC: ≤ 0.031 µg/mL
[8]; [22]
  MIC: 32 µg/mL
[15]
  MIC: 8 µg/mL
[9]; [23]
  MIC: ≤ 0.031 µg/mL
[16]
  MIC: ≤ 0.031 µg/mL
[10]; [24]
  MIC: ≤ 0.031 µg/mL
[11]; [25]
  MIC: ≤ 0.031 µg/mL
[17]
  MIC: 16 µg/mL
[12]
  MIC: 2 µg/mL
[13]; [26]
  MIC: 4 µg/mL
